What was measured:
[1] = tested on: B. kaoi adventitious roots; assay: qRT-PCR of MeJA-induced gene transcripts in adventitious roots; format: cell-based, Bupleurum kaoi; details: 500 μM MeJA
Protocol: Adventitious root cultures were induced from the roots of germ-free seedlings of B. kaoi and were subcultured every 6 weeks by adding 0.2 g roots to a 125 ml flask containing 50 ml of B5 liquid medium supplemented with 2 mg 1^−1 NAA. Cultures were shaken using a rotary shaker at 100 rpm at 25° C. in the dark. To quantify the effect of MeJA on saikosaponin level, adventitious roots were treated with 500 and 1000 μM MeJA 2 weeks after subculture. Total saikosaponin was measured 2 weeks after MeJA treatment. To monitor expression of MeJA-responsive genes, the nutrient medium was refreshed 4 weeks after subculture and MeJA (500 μM) was applied 2 weeks after refreshment. Roots were harvested at 13 time points (5 min; 1, 2, 8, 24 hours; 2, 4, 6, 8 days; 2, 3, 4, 5 weeks) after the addition of the MeJA.
Total cellular RNA was extracted as described by Chang et al. (Chang et al., Plant Mol. Biol. (1993) 693-699) with some modifications. Three to five grams of tissue was frozen in liquid nitrogen and ground to a fine powder with mortar and pestle. The powder was added to 15 ml of prewarmed (65° C.) extraction buffer (2%, v/v hexadecyltrimethylammonium bromide (CTAB), 2%, v/v polyvinylpyrrolidinone K 30 (PVP), 100 mM Tris-HCl, pH 8.0, 25 mM EDTA, 2 M NaCl, 0.5 mg ml^−1 spermidine, 2% β-mercaptoethanol), and mixed completely by vigorous shaking. The mixture was extracted twice with an equal volume of chloroform:isoamyl alcohol (24:1). The RNA was precipitated by adding ¼ volume of cold 10 M LiCl to the aqueous phase and held for 12 to 18 h at −20° C. After centrifugation at 19,800×g at 4° C., the RNA was dissolved in 500 μl sterile DEPC H2O. The resuspended RNA was reextracted with chloroform:isoamyl alcohol (24:1). Three volumes of 100% ethanol and 1/10 volume of 3 M sodium acetate (pH 5.2) were added to the aqueous phase, and the solution was precipitated with liquid nitrogen for 15 min The RNA was spun down at 19,800×g for 30 min at 4° C. and washed with 80% ethanol. The dried pellet was resuspended in sterile DEPC H2O.
Each RNA sample of 10 μg in 9 μl sterile DEPC H2O and 1 μl oligo-d(T)18 primer (100 μM) was denatured at 90° C. for 5 min and chilled on ice for 10 min Then 4μ5× reaction buffer (250 mM Tris-HCl, pH 8.0, 375 mM KCl, 15 mM MgCl2), 2 μl 10 mM dNTP, 2 μl 100 mM dithiothreitol (DTT), and 0.5 μl RNasin ribonuclease inhibitor (40 U μl^−1, Promega) were added and incubated at 37° C. for 10 min. After the addition of 1.5 μl Moloney murine leukemia virus (MMLV) reverse transcriptase (200 U μl^−1, Gibco BRL), the reaction was carried out at 37° C. for 90 min, 95° C. for 5 min, then chilled on ice. qRT-PCR reactions were performed with a SYBR Green PCR Master Mix (Applied Biosystems) in a 7500 Real-Time PCR System (Applied Biosystems) using primers designed with Primer Express 2.0 Software (Applied Biosystems). Each reaction was performed in triplicate, and contained 4 μl of a 1:1000 dilution of synthesized cDNA, primers to a final concentration of 100 nM each, 5 μl of the SYBR Green PCR Master mix and sterile deionized H2O to a total volume of 10 μl. PCR reactions were carried out at 50° C. for 2 min, 95° C. for 10 min, 40 cycles of 95° C. for 15 s and 60° C. for 1 min. The specificity of the amplified products was evaluated by analysis of the dissociation curves generated by the equipment. Non-template controls were prepared to confirm absence of contamination. The ratio between the relative amounts of the target gene and the endogenous control gene, in the qRT-PCR reactions, was determined based on the 2^−ΔΔCt method. The target gene expression level was plotted as log10 RQ (RQ=2^−ΔΔCt).

[2] = tested on: B. kaoi adventitious roots; assay: Measurement of malondialdehyde (MDA) in adventitious roots; format: cell-based, Bupleurum kaoi
Protocol: To test whether MeJA caused oxidative stress, the H2O2 level was measured as described below. H2O2 was extracted by homogenizing 0.3 to 0.5 g of adventitious roots with 3 ml phosphate buffer (50 mM, pH6.8) and centrifuged at 6000×g for 25 min. A 2 ml extract was mixed with 1 ml 0.1% titanium sulfate in 20% H2SO4 (v/v), and centrifuged at 6000×g for 15 min. The optical density of the supernatant was measured at 410 nm using an equal volume of phosphate buffer as a blank. […] The MDA level was colorimetrically measured as described below. MDA was extracted by homogenizing 0.3 to 0.5 g adventitious roots with 2 ml 5% trichloroacetic acid, and centrifuged at 10,000×g for 5 min at 20° C. A mixture of 1 ml supernatant with 4 ml 0.5% thiobarbituric acid in 20% trichloroacetic acid was heated in a 95° C. water bath for 30 min and centrifuged for 10 min at 2000×g to remove haziness. Optical density of the supernatant was measured at 532 nm and 600 nm using 1 ml 5% trichloroacetic acid to replace supernatant as a blank.

## CC/C=C\CC1C(=O)CCC1CC(=O)OC (stereo not drawn) [MeJA, Methyl jasmonate]
[1]; 2 weeks
  Peroxidase AM409285 transcripts increase: 37 fold
[1]; 5 min
  BkGST1 (AM409308) transcripts increase: 3 fold
  BkGST2 (AM409289) transcripts activation: 6 fold
[1]; 1 h
  B. kaoi PAL (AM409299) transcripts increase: 3 fold
  BkERF1.2 (AM409280) transcripts increase: 133 fold
  Peroxidase AM409296 transcripts increase: 7 fold
  Phospholipase D alpha 1 (AM409303) transcripts induction: 6 fold
  Trypsin protease inhibitor AM409305 transcripts increase: 4 fold
[1]; 2 h
  ACO gene (AM409282) induction: 5 fold
  BkAOC (AM409312) mRNA level induction: 9 fold
  BkERF1.1 (AM409278) transcripts increase: 41 fold
  IAA-amino acid hydrolase (AM409294) transcripts increase: 50 fold
  PIN (AM409287) transcripts increase: 166 fold
  Prephenate dehydratase (AM409309) transcripts induction: 7 fold
  Trypsin protease inhibitor AM409295 transcripts increase: 5 fold
[1]; 8 h
  BkGST2 (AM409289) transcripts increase: 161 fold
  Peroxidase AM409285 transcripts increase: 5 fold
  Protease inhibitor (AM409279) transcripts increase: 4 fold
  Pyruvate kinase gene (AM409311) induction: 3 fold
  UDP-glucosyltransferase gene (AM409293) induction: 98 fold
[1]; 24 h
  Serine protease inhibitor (AM409301) mRNA level increase: 3 fold
[1]; 2 days
  Trypsin protease inhibitor AM409295 transcripts increase: 2051 fold
[1]; 4 days
  IAA-amido synthase gene (AM409281) induction: 5 fold
  IAA-amino acid hydrolase (AM409294) transcripts increase: 139 fold
  Pyruvate kinase gene (AM409311) induction: 9 fold
[1]; 6 days
  B. kaoi PAL (AM409299) transcripts increase: 23 fold
  Basic endochitinase gene (AM409300) induction: 726 fold
  BkSDR (AM409290) transcripts increase: 4 fold
  Glycosyl hydrolase family 18 protein gene (AM409313) induction: 61 fold
  LOX (AM409291) transcript induction: 4404 fold
  PIN (AM409287) transcripts increase: 178 fold
  Peroxidase AM409296 transcripts increase: 114 fold
  Phospholipase D alpha 1 (AM409303) transcripts induction: 44 fold
  Prephenate dehydratase (AM409309) transcripts induction: 27 fold
  Trypsin protease inhibitor AM409305 transcripts increase: 2944 fold
  Zinc finger C2H2 type gene (AM409288) transcripts induction: 118 fold
[1]; 8 days
  ACO gene (AM409282) induction: 19 fold
  BkGST1 (AM409308) transcripts increase: 17 fold
  IAA-amido synthase gene (AM409281) induction: 10 fold
  MYB gene (AM409302) transcripts increase: 53 fold
  OPR2 (AM409310) expression level induction: 19 fold
  Protease inhibitor (AM409279) transcripts increase: 90 fold
  Serine protease inhibitor (AM409301) mRNA level increase: 81 fold
[1]; after 2 weeks
  Plant defensin (AM409284) transcripts increase: 5 fold
[1]; primarily in 4-8 days
  Enoyl-CoA hydratase gene (AM409286) induction: 6 fold
[1]; time not stated
  β-amyrin synthase gene (β-AS, AM421813) transcript level increase: 2 fold
[2]; 500 μM MeJA, at 2 days
  Increase in the MDA level: 1.4 fold
[2]; all treatments during 5 weeks
  Accumulation of MDA: < 47 nmol/g

From patent US8222487B2, “Application of ERF genes from Bupleurum kaoi” (National Tsing Hua University, priority 2009, dated 2012)
